PubChem BioAssay (NCI)
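The compound was tested at five concentrations on cells cultured in 96-well plates, with a 48-hour exposure period. Definition used: TGI = concentration required for complete inhibition of growth.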

Experiments:
Assay in all cases: growth of human tumour cells (NCI), 48 h
RXF 393 renal = tested on: RXF 393 renal
HCC-2998 colon = tested on: HCC-2998 colon
UACC-62 melanoma = tested on: UACC-62 melanoma
A498 renal = tested on: A498 renal
SF-295 CNS = tested on: SF-295 CNS
HL-60(TB) leukemia = tested on: HL-60(TB) leukemia
OVCAR-5 ovarian = tested on: OVCAR-5 ovarian
OVCAR-4 ovarian = tested on: OVCAR-4 ovarian
SK-MEL-5 melanoma = tested on: SK-MEL-5 melanoma
SK-MEL-28 melanoma = tested on: SK-MEL-28 melanoma
NCI-H226 lung = tested on: NCI-H226 lung
NCI-H522 lung = tested on: NCI-H522 lung
LOX IMVI melanoma = tested on: LOX IMVI melanoma
HS 578T breast = tested on: HS 578T breast
SK-MEL-2 melanoma = tested on: SK-MEL-2 melanoma
BT-549 breast = tested on: BT-549 breast
COLO 205 colon = tested on: COLO 205 colon
MDA-MB-435 = tested on: MDA-MB-435
EKVX NSCLC = tested on: EKVX NSCLC

SMILES | TGI (RXF 393 renal) [µM] | TGI (HCC-2998 colon) [µM] | TGI (UACC-62 melanoma) [µM] | TGI (A498 renal) [µM] | TGI (SF-295 CNS) [µM] | TGI (HL-60(TB) leukemia) [µM] | TGI (OVCAR-5 ovarian) [µM] | TGI (OVCAR-4 ovarian) [µM] | TGI (SK-MEL-5 melanoma) [µM] | TGI (SK-MEL-28 melanoma) [µM] | TGI (NCI-H226 lung) [µM] | TGI (NCI-H522 lung) [µM] | TGI (LOX IMVI melanoma) [µM] | TGI (HS 578T breast) [µM] | TGI (SK-MEL-2 melanoma) [µM] | TGI (BT-549 breast) [µM] | TGI (COLO 205 colon) [µM] | TGI (MDA-MB-435) [µM] | TGI (EKVX NSCLC) [µM]
Cc1nc2ccc(F)cc2c2c1CCN2c1ccc(Cl)cc1 | 55.7 | 29.4 | 39.1 | 73.1 | > 100 | 17.7 | > 100 | > 100 | 12.3 | 28 | 72.2 | 30.5 | 33 | 79.5 | 41.4 | 67.2 | 20.6 | 33.5 | 
CCOC(=O)/C=C(/C(=O)OCC)n1cnc2c(=O)[nH]c(NC(C)=O)nc21 |  | > 100 | > 100 | > 100 | > 100 | > 100 | > 100 | > 100 | > 100 | > 100 | > 100 | > 100 | > 100 | > 100 | > 100 | > 100 | > 100 | > 100 | > 100
CC(C)[Si]1(C(C)C)OCC2OC3(CO)C(Oc4nc(=O)ccn43)C2O[Si](C(C)C)(C(C)C)O1 (centres undefined) | 18.3 | 25.4 | 26.8 |  | 29.6 | 27.1 |  | 26.7 | 32.9 | 29.3 | 31 |  | 28.7 | 45.9 | 30.5 | 24.9 | 22 | 31.4 | 35
C=CCN(C(=O)CNC(=O)C(F)(F)F)c1cc(OCc2ccccc2)c2c(c1)c(C)cn2S(=O)(=O)c1ccccc1 | > 100 | > 100 | > 100 |  | > 100 |  | > 100 | > 100 | > 100 | > 100 | > 100 | > 100 | > 100 | > 100 | > 100 | > 100 | > 100 | > 100 | > 100
CCSC1=N/C(=C\c2ccc(N(C)C)cc2)C(Cl)=N1 | > 100 | > 100 | > 100 | > 100 | > 100 | > 100 | > 100 | > 100 | > 100 | > 100 | > 100 | > 100 |  | > 100 | > 100 | > 100 | > 100 | > 100 | > 100
CCOC(=O)[C@H](C)OC(=O)[C@@](C)(NC(=O)c1ccccc1C(=O)OC)[C@@H]1NC=C(C(=O)OC)CS1 | > 100 | > 100 | > 100 | > 100 | > 100 |  | > 100 | > 100 | > 100 | > 100 | > 100 | > 100 |  | > 100 | > 100 | > 100 | > 100 | 85.6 | > 100
